Where a name gives a salt, the structure may show the parent alone.
Assays:
Format in all cases: biochemical
rhVAP-1 = rhVAP-1 (Homo sapiens (Human), UniProt Q16853); test: VAP-1 fluorometric assay (Amplex Red/HRP, benzylamine substrate); details: class symbols, ranges defined in μM
Method in brief: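 Recombinant human VAP-1 oxidizes 50 μM benzylamine in 10 mM NaHCO3 pH 7.4 containing 0.05 mM Amplex Red and 0.5 U HRP, with inhibitor in 0.5% DMSO. After 30 min at 37 °C in the dark, resorufin fluorescence is read […], calibrated against an H2O2 standard curve.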

rhMAO-A = rhMAO-A (Homo sapiens (Human), UniProt P21397); test: MAO-Glo assay, MAO-A inhibition
Sequence of rhMAO-A (P21397 whole entry): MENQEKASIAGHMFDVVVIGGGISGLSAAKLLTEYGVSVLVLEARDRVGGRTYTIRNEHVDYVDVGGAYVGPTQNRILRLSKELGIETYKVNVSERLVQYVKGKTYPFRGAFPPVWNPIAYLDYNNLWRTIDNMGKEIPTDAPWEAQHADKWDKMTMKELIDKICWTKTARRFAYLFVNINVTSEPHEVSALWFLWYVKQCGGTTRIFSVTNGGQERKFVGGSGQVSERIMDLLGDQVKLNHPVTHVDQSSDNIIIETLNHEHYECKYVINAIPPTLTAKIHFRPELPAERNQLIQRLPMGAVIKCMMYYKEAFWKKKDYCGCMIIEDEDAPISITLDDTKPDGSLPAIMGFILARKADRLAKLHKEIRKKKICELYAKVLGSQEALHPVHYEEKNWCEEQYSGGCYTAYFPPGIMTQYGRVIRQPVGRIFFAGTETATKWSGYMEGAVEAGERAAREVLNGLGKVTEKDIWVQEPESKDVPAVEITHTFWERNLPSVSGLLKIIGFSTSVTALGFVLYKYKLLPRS
Method in brief: (§1)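 Recombinant human MAO-A or MAO-B with luciferin-derivative substrate (10 μM for MAO-A, […]) in 100 mM HEPES pH 7.5, 5% glycerol, 1 h at room temperature; luminescence read 20 min after detection reagent.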

rhMAO-B = rhMAO-B (Homo sapiens (Human), UniProt P27338); test: MAO-Glo assay, MAO-B inhibition
Sequence of rhMAO-B (P27338 whole entry): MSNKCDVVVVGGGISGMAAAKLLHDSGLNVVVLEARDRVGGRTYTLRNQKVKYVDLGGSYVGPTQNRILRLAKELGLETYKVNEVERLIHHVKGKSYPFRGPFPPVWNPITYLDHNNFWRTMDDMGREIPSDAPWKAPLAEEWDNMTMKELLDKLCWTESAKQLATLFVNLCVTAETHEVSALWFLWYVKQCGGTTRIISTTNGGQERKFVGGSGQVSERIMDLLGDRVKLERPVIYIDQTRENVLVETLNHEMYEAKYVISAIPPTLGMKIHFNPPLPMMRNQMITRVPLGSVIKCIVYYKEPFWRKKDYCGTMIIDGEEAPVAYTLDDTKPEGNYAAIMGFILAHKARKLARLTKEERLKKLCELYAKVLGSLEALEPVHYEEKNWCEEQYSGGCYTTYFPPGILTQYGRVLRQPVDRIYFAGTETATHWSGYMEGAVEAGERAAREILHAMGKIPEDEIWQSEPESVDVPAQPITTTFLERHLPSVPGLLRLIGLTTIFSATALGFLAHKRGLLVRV
Method in brief: as §1

[1] = class symbols, ranges defined in μM

Sequence of rhVAP-1 (Q16853 whole entry): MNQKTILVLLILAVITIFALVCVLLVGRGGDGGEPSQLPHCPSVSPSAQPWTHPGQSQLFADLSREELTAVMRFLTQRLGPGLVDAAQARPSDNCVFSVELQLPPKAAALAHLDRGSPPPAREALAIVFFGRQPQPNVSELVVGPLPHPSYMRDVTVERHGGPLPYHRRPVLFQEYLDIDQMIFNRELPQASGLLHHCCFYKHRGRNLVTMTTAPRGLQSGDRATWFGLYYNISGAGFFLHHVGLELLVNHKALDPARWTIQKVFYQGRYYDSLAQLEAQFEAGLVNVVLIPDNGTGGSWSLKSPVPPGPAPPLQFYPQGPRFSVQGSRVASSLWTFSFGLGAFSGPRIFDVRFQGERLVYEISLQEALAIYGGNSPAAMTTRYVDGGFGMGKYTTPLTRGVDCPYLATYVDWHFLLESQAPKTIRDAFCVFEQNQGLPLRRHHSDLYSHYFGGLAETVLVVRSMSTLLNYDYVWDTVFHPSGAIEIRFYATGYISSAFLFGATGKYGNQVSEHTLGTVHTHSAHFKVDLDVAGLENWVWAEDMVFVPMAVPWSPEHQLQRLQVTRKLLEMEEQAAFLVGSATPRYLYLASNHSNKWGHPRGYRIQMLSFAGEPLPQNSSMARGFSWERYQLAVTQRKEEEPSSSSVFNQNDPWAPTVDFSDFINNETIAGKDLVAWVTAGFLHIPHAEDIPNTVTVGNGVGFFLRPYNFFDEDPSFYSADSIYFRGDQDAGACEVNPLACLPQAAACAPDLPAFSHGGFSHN

Row | Compound | IC50 (rhVAP-1) [µM] | IC50 (rhMAO-A; [1]) [µM] | IC50 (rhMAO-B; [1]) [µM] | IC50 (rhMAO-A; bound printed in cell) [µM] | IC50 (rhMAO-B; bound printed in cell) [µM]
1 | NC/C(=C/F)COc1ccc2nc(NCCC3COC3)oc2c1 [Example 65, (Z)-6-((2-(aminomethyl)-3-fluoroallyl)oxy)-N-(2-(oxetan-3-yl)ethyl)benzo[d]oxazol-2-amine 4-methylbenzenesulfonate] | < 0.1 | 0.1 to 1 | 1 to 10 | – | –
2 | NC/C(=C\F)COc1ccc2nc(N3CC4(COC4)C3)oc2c1 [Example 67, (E)-2-(((2-(2-oxa-6-azaspiro[3.3]heptan-6-yl)benzo[d]oxazol-6-yl)oxy)methyl)-3-fluoroprop-2-en-1-amine 4-methylbenzenesulfonate] | < 0.1 | 1 to 10 | 1 to 10 | – | –
3 | CCCCc1nc2cc(C)c(OC/C(=C/F)CN)cc2o1 [Example 68, (E)-2-(((2-butyl-5-methylbenzo[d]oxazol-6-yl)oxy)methyl)-3-fluoroprop-2-en-1-amine 4-methylbenzenesulfonate] | < 0.1 | 1 to 10 | 0.1 to 1 | – | –
4 | Cc1ncccc1CNc1nc2ccc(OC/C(=C\F)CN)cc2o1 [Example 69, (Z)-6-((2-(aminomethyl)-3-fluoroallyl)oxy)-N-((2-methylpyridin-3-yl)methyl)benzo[d]oxazol-2-amine 4-methylbenzenesulfonate] | < 0.1 | – | 1 to 10 | > 50 | –
5 | NC/C(=C\F)COc1ccc2nc(NCCCO)oc2c1 [Example 70, (E)-3-((6-((2-(aminomethyl)-3-fluoroallyl)oxy)benzo[d]oxazol-2-yl)amino)propan-1-ol 4-methylbenzenesulfonate] | < 0.1 | 1 to 10 | 1 to 10 | – | –
6 | CNC(=O)[C@H](Cc1ccccc1)Nc1nc2ccc(OC/C(=C\F)CN)cc2o1 [Example 71, (S,Z)-2-((6-((2-(aminomethyl)-3-fluoroallyl)oxy)benzo[d]oxazol-2-yl)amino)-N-methyl-3-phenylpropanamide 4-methylbenzenesulfonate] | < 0.1 | – | 1 to 10 | > 50 | –
7 | CNC(=O)CN(C)c1nc2ccc(OC/C(=C\F)CN)cc2o1 [Example 72, (Z)-2-((6-((2-(aminomethyl)-3-fluoroallyl)oxy)benzo[d]oxazol-2-yl)(methyl)amino)-N-methylacetamide 4-methylbenzenesulfonate] | < 0.1 | – | – | > 50 | > 50
8 | CCCCc1nc2ccc(OC/C(=C\F)CN)cc2n1C [Example 73, (Z)-2-(((2-Butyl-1-methyl-1H-benzo[d]imidazol-6-yl)oxy)methyl)-3-fluoroprop-2-en-1-amine 4-methylbenzenesulfonate] | < 0.1 | 1 to 10 | 1 to 10 | – | –
9 | COc1cc(CNc2nc3ccc(OC/C(=C\F)CN)cc3o2)ccn1 [Example 74, (Z)-6-((2-(aminomethyl)-3-fluoroallyl)oxy)-N-((2-methoxypyridin-4-yl)methyl)benzo[d]oxazol-2-amine 4-methylbenzenesulfonate] | < 0.1 | 1 to 10 | 1 to 10 | – | –
10 | COc1ncccc1CNc1nc2ccc(OC/C(=C\F)CN)cc2o1 [Example 75, (Z)-6-((2-(aminomethyl)-3-fluoroallyl)oxy)-N-((2-methoxypyridin-3-yl)methyl)benzo[d]oxazol-2-amine 4-methylbenzenesulfonate] | < 0.1 | – | 0.1 to 1 | > 50 | –
11 | COc1ccc(CNc2nc3ccc(OC/C(=C\F)CN)cc3o2)cn1 [Example 76, (Z)-6-((2-(aminomethyl)-3-fluoroallyl)oxy)-N-((6-methoxypyridin-3-yl)methyl)benzo[d]oxazol-2-amine 4-methylbenzenesulfonate] | < 0.1 | 1 to 10 | 1 to 10 | – | –
12 | NC/C(=C/F)COc1ccc2nc(N3CCC(O)CC3)oc2c1 [Example 77, (Z)-1-(6-((2-(aminomethyl)-3-fluoro-allyl)oxy)benzo[d]oxazol-2-yl)piperidin-4-ol 4-methylbenzenesulfonate] | < 0.1 | 1 to 10 | – | – | > 50
13 | NC/C(=C/F)COc1ccc2nc(NC3CCC(O)CC3)oc2c1 (stereo not drawn) [Example 78, (Z)-4-((6-((2-(aminomethyl)-3-fluoroallyl)oxy)benzo[d]oxazol-2-yl)amino)cyclohexan-1-ol 4-methylbenzenesulfonate] | < 0.1 | – | 1 to 10 | > 50 | –
14 | CNC(=O)[C@@H](Cc1ccccc1)Nc1nc2ccc(OC/C(=C\F)CN)cc2o1 [Example 80, (R,Z)-2-((6-((2-(aminomethyl)-3-fluoroallyl)oxy)benzo[d]oxazol-2-yl)amino)-N-methyl-3-phenylpropanamide 4-methylbenzenesulfonate] | < 0.1 | – | – | > 40 | > 40
15 | COCCCNc1nc2ccc(OC/C(=C\F)CN)cc2o1 [Example 81, (Z)-6-((2-(aminomethyl)-3-fluoroallyl)oxy)-N-(3-methoxypropyl)benzo[d]oxazol-2-amine 4-methylbenzenesulfonate] | < 0.1 | 1 to 10 | 1 to 10 | – | –
16 | CCCCc1nc2c(F)cc(OC/C(=C/F)CN)cc2o1 [Example 82, (E)-2-(((2-butyl-4-fluorobenzo[d]-oxazol-6-yl)oxy)methyl)-3-fluoroprop-2-en-1-amine 4-methylbenzenesulfonate] | < 0.1 | 1 to 10 | < 0.1 | – | –
17 | NC/C(=C/F)COc1ccc2nc(NCc3ccc(C(F)(F)F)nc3)oc2c1 [Example 83, (Z)-6-((2-(aminomethyl)-3-fluoroallyl)oxy)-N-((6-(trifluoromethyl)pyridin-3-yl)methyl)benzo[d]oxazol-2-amine 4-methylbenzenesulfonate] | < 0.1 | 10 to 30 | 1 to 10 | – | –
18 | NC/C(=C\F)COc1ccc2nc(NCc3ccc(C(F)(F)F)nc3)oc2c1 [Example 84, (E)-6-((2-(aminomethyl)-3-fluoroallyl)oxy)-N-((6-(trifluoromethyl)pyridin-3-yl)methyl)benzo[d]oxazol-2-amine 4-methylbenzenesulfonate] | < 0.1 | – | 1 to 10 | > 40 | –
19 | NC/C(=C\F)COc1ccc2nc(N3CCC(O)C3)oc2c1 (stereo not drawn) [Example 85, (E)-1-(6-((2-(aminomethyl)-3-fluoroallyl)oxy)benzo[d]oxazol-2-yl)pyrrolidin-3-ol 4-methylbenzenesulfonate] | < 0.1 | 1 to 10 | 1 to 10 | – | –
20 | CC1CN(c2nc3ccc(OC/C(=C/F)CN)cc3o2)C(C)(C)C1 (stereo not drawn) [Example 86, (E)-3-fluoro-2-(((2-(2,2,4-trimethylpyrrolidin-1-yl)benzo[d]oxazol-6-yl)oxy)methyl)prop-2-en-1-amine 4-methylbenzenesulfonate] | < 0.1 | – | 1 to 10 | > 50 | –
21 | NC/C(=C\F)COc1ccc2nc(NC3CCC(O)C3)oc2c1 (stereo not drawn) [Example 87, (E)-3-((6-((2-(aminomethyl)-3-fluoroallyl)oxy)benzo[d]oxazol-2-yl)amino)cyclopentan-1-ol 4-methylbenzenesulfonate] | < 0.1 | 1 to 10 | 1 to 10 | – | –
22 | NC/C(=C\F)COc1ccc2nc(NCCCO)sc2c1 [Example 88, (E)-3-((6-((2-(aminomethyl)-3-fluoroallyl)oxy)benzo[d]thiazol-2-yl)amino)propan-1-ol 4-methylbenzenesulfonate] | < 0.1 | 1 to 10 | 1 to 10 | – | –
23 | CCCCn1cnc2cc(OC/C(=C/F)CN)ccc21 [Example 89, (E)-2-(((1-butyl-1H-benzo[d]imidazol-5-yl)oxy)methyl)-3-fluoroprop-2-en-1-amine 4-methylbenzenesulfonate] | < 0.1 | – | 1 to 10 | > 50 | –
24 | NC/C(=C\F)COc1ccc2nc(N3CCS(=O)(=O)CC3)oc2c1 [Example 90, (E)-4-(6-((2-(aminomethyl)-3-fluoroallyl)oxy)benzo[d]oxazol-2-yl)thiomorpholine 1,1-dioxide 4-methylbenzenesulfonate] | < 0.1 | – | 1 to 10 | > 50 | –
25 | Cc1cc(CNc2nc3ccc(OC/C(=C/F)CN)cc3o2)cc(C)n1 [Example 91, (E)-6-((2-(Aminomethyl)-3-fluoroallyl)oxy)-N-((2,6-dimethylpyridin-4-yl)methyl)benzo[d]oxazol-2-amine trihydrochloride] | < 0.1 | – | 1 to 10 | > 50 | –
26 | C=C(CN)c1ccc2nc(CCCC)oc2c1 [Example 92, 2-(2-butylbenzo[d]oxazol-6-yl)prop-2-en-1-amine] | 0.1 to 1 | < 0.1 | < 0.1 | – | –
27 | NC/C(=C/F)COc1ccc2nc(NCCC(Cl)CCO)oc2c1 (stereo not drawn) [Example 93, (Z)-5-((6-((2-(aminomethyl)-3-fluoroallyl)oxy)benzo[d]oxazol-2-yl)amino)-3-chloropentan-1-ol 4-methylbenzenesulfonate] | < 0.1 | 1 to 10 | 1 to 10 | – | –
28 | NC/C(=C/F)COc1ccc2nc(NCc3ccncc3)oc2c1 [Example 94, (Z)-6-((2-(aminomethyl)-3-fluoroallyl)oxy)-N-(pyridin-4-ylmethyl)benzo[d]oxazol-2-amine 4-methylbenzenesulfonate] | < 0.1 | – | 0.1 to 1 | > 50 | –
29 | (Z)-2-((6-((2-(aminomethyl)-3-fluoroallyl)oxy)benzo[d]oxazol-2-yl)amino)-N-methylacetamide (4-methylbenzenesulfonate) [Example 63] | < 0.1 | – | – | > 40 | > 40

Reference: patent US20230295140A1, “INHIBITORS OF VAP-1” (Acucela Inc., priority 2021, published 2023)
